From patent US10611762B2, “Crystalline forms of a FGFR inhibitor and processes for preparing the same” (Incyte Corporation, priority 2017, dated 2020)
≈ marks a conversion by molar mass, not a printed value.

Legend:
Format in all cases: physicochemical
[1] = Solubility measurement in various solvents at 23 ± 1° C. (Procedure 1)
Protocol: (§1) The solubility of the Compound 1 Form I was measured according to Procedure 1 for solubility in 23±1° C. (Table 13) and Procedure 2 for 50±1° C.

[2] = Solubility measurement in various solvents at 50 ± 1° C. (Procedure 2)
Protocol: as §1

[3] = Competitive slurry experiments (stability relationship of Compound 1 forms); details: in acetone/water (2:1) and acetone/water (1:1), 23-25° C.
Protocol: To evaluate the transformation of Compound 1 solid forms, competitive slurry experiments in production crystallization solvents at 23-25° C. were performed with a mixture of […] polymorphs (Form I through Form XI) according to the procedures in Table 25 (acetone/water 2:1) and Table 26 (acetone/water 1:1).

## C=CC(=O)NCc1cc2c(cn1)CN(c1c(F)c(OC)cc(OC)c1F)C(=O)C21CC1 [Compound 1 Form I, N-((2′-(2,6-difluoro-3,5-dimethoxyphenyl)-3′-oxo-2′,3′-dihydro-1′H-spiro[cyclopropane-1,4′-[2,7]naphthyridine]-6′-yl)methyl)acrylamide]
[1]; 1-Propanol, 23 °C, organic solvent or mixture, thermodynamic from solid, 1-Propanol, read-out: Solubility at 23 ± 1° C.
  solubility: 1720 µg/mL (≈ 4.01 mM)
[1]; 2-methoxyethanol, 23 °C, organic solvent or mixture, thermodynamic from solid, 2-Methoxyethanol, read-out: Solubility at 23 ± 1° C.
  solubility: 20200 µg/mL (≈ 47 mM)
[1]; Acetone/water (1:1), 23 °C, aqueous with cosolvent or surfactant or cyclodextrin, thermodynamic from solid, Acetone/water (1:1), read-out: Solubility at 23 ± 1° C.
  solubility: 3970 µg/mL (≈ 9.24 mM)
[1]; Acetone/water (1:2), 23 °C, aqueous with cosolvent or surfactant or cyclodextrin, thermodynamic from solid, Acetone/water (1:2), read-out: Solubility at 23 ± 1° C.
  solubility: 860 µg/mL (≈ 2 mM)
[1]; Acetone/water (1:4), 23 °C, aqueous with cosolvent or surfactant or cyclodextrin, thermodynamic from solid, Acetone/water (1:4), read-out: Solubility at 23 ± 1° C.
  solubility: 170 µg/mL (≈ 0.396 mM)
[1]; Acetone/water (2:1), 23 °C, aqueous with cosolvent or surfactant or cyclodextrin, thermodynamic from solid, Acetone/water (2:1), read-out: Solubility at 23 ± 1° C.
  solubility: 12500 µg/mL (≈ 29 mM)
[1]; Acetone/water (4:1), 23 °C, aqueous with cosolvent or surfactant or cyclodextrin, thermodynamic from solid, Acetone/water (4:1), read-out: Solubility at 23 ± 1° C.
  solubility: 19400 µg/mL (≈ 45.2 mM)
[1]; DCM/MeOH (1:1), 23 °C, organic solvent or mixture, thermodynamic from solid, DCM/MeOH (1:1), read-out: Solubility at 23 ± 1° C.
  solubility: > 50000 µg/mL
[1]; DMF, 23 °C, organic solvent or mixture, thermodynamic from solid, DMF, read-out: Solubility at 23 ± 1° C.
  solubility: > 50000 µg/mL
[1]; DMSO, 23 °C, organic solvent or mixture, thermodynamic from solid, DMSO, read-out: Solubility at 23 ± 1° C.
  solubility: > 50000 µg/mL
[1]; DMSO, DMF, DCM/MeOH (1:1), THF/water (4:1), 23 °C, organic solvent or mixture, thermodynamic from solid, at 23° C. in DMSO, DMF, DCM/MeOH (1:1), and THF/water (4:1), read-out: Solubility (completely soluble)
  solubility: > 50000 µg/mL
[1]; Dichloromethane, 23 °C, organic solvent or mixture, thermodynamic from solid, Dichloromethane, read-out: Solubility at 23 ± 1° C.
  solubility: 12400 µg/mL (≈ 29 mM)
[1]; EtOAc, 23 °C, organic solvent or mixture, thermodynamic from solid, EtOAc, read-out: Solubility at 23 ± 1° C.
  solubility: 890 µg/mL (≈ 2.07 mM)
[1]; EtOH, 23 °C, organic solvent or mixture, thermodynamic from solid, EtOH, read-out: Solubility at 23 ± 1° C.
  solubility: 2010 µg/mL (≈ 4.68 mM)
[1]; IPA, 23 °C, organic solvent or mixture, thermodynamic from solid, IPA, read-out: Solubility at 23 ± 1° C.
  solubility: 900 µg/mL (≈ 2.1 mM)
[1]; IPAc, 23 °C, organic solvent or mixture, thermodynamic from solid, IPAc, read-out: Solubility at 23 ± 1° C.
  solubility: 440 µg/mL (≈ 1.02 mM)
[1]; MEK, 23 °C, organic solvent or mixture, thermodynamic from solid, MEK, read-out: Solubility at 23 ± 1° C.
  solubility: 3580 µg/mL (≈ 8.34 mM)
[1]; MIBK, 23 °C, organic solvent or mixture, thermodynamic from solid, MIBK, read-out: Solubility at 23 ± 1° C.
  solubility: 910 µg/mL (≈ 2.12 mM)
[1]; MeCN, 23 °C, organic solvent or mixture, thermodynamic from solid, MeCN, read-out: Solubility at 23 ± 1° C.
  solubility: 4590 µg/mL (≈ 10.7 mM)
[1]; THF, 23 °C, organic solvent or mixture, thermodynamic from solid, THF, read-out: Solubility at 23 ± 1° C.
  solubility: 3770 µg/mL (≈ 8.78 mM)
[1]; THF/water (4:1), 23 °C, organic solvent or mixture, thermodynamic from solid, THF/water (4:1), read-out: Solubility at 23 ± 1° C.
  solubility: > 50000 µg/mL
[1]; acetone, 23 °C, organic solvent or mixture, thermodynamic from solid, Acetone, read-out: Solubility at 23 ± 1° C.
  solubility: 5100 µg/mL (≈ 11.9 mM)
[1]; at 23° C. in MeCN, 1,4-dioxane, MeOH, 2-methoxyethanol, THF, acetone, n-BuOH, EtOH, ethyl formate, 1-propanol, MEK, acetone water (2:1), acetone water (1:1), chloroform and dichloromethane
  Solubility (slightly soluble): 1000 to 50000 µg/mL
[1]; ethyl formate, 23 °C, organic solvent or mixture, thermodynamic from solid, Ethyl formate, read-out: Solubility at 23 ± 1° C.
  solubility: 2200 µg/mL (≈ 5.12 mM)
[1]; isobutyl acetate, 23 °C, organic solvent or mixture, thermodynamic from solid, Isobutyl acetate, read-out: Solubility at 23 ± 1° C.
  solubility: 280 µg/mL (≈ 0.652 mM)
[1]; methanol, 23 °C, organic solvent or mixture, thermodynamic from solid, Methanol, read-out: Solubility at 23 ± 1° C.
  solubility: 5350 µg/mL (≈ 12.5 mM)
[1]; n-BuOH, 23 °C, organic solvent or mixture, thermodynamic from solid, n-BuOH, read-out: Solubility at 23 ± 1° C.
  solubility: 1180 µg/mL (≈ 2.75 mM)
[1]; organic solvent or mixture, thermodynamic from solid, at 23° C. in heptane, hexane, toluene, MTBE, isobutyl acetate, IPAc, water, acetone water (1:4), MIBK, EtOAc, IPA, and acetone water (1:2), read-out: Solubility (insoluble)
  solubility: < 1000 µg/mL
[1]; water, 23 °C, water, thermodynamic from solid, Water, read-out: Solubility at 23 ± 1° C.
  solubility: 10 µg/mL (≈ 0.0233 mM)
[2]; 1-Propanol, 50 °C, organic solvent or mixture, thermodynamic from solid, 1-Propanol, read-out: Solubility at 50 ± 1° C.
  solubility: 2890 µg/mL (≈ 6.73 mM)
[2]; 2-methoxyethanol, 50 °C, organic solvent or mixture, thermodynamic from solid, 2-Methoxyethanol, read-out: Solubility at 50 ± 1° C.
  solubility: 36600 µg/mL (≈ 85.3 mM)
[2]; 50 °C, organic solvent or mixture, thermodynamic from solid, at 50° C. in DMSO, DMF, DCM/MeOH (1:1), THF/water (4:1), acetone/water (4:1) and chloroform, read-out: Solubility (completely soluble)
  solubility: > 50000 µg/mL
[2]; 50 °C, organic solvent or mixture, thermodynamic from solid, at 50° C. in heptane, hexane, toluene, MTBE, isobutyl acetate, IPAc, water, and acetone water (1:4), read-out: Solubility (insoluble)
  solubility: < 1000 µg/mL
[2]; Acetone/water (1:1), 50 °C, aqueous with cosolvent or surfactant or cyclodextrin, thermodynamic from solid, Acetone/water (1:1), read-out: Solubility at 50 ± 1° C.
  solubility: 12600 µg/mL (≈ 29.4 mM)
[2]; Acetone/water (1:2), 50 °C, aqueous with cosolvent or surfactant or cyclodextrin, thermodynamic from solid, Acetone/water (1:2), read-out: Solubility at 50 ± 1° C.
  solubility: 3530 µg/mL (≈ 8.22 mM)
[2]; Acetone/water (1:4), 50 °C, aqueous with cosolvent or surfactant or cyclodextrin, thermodynamic from solid, Acetone/water (1:4), read-out: Solubility at 50 ± 1° C.
  solubility: 570 µg/mL (≈ 1.33 mM)
[2]; Acetone/water (2:1), 50 °C, aqueous with cosolvent or surfactant or cyclodextrin, thermodynamic from solid, Acetone/water (2:1), read-out: Solubility at 50 ± 1° C.
  solubility: 47000 µg/mL (≈ 109 mM)
[2]; Acetone/water (4:1), 50 °C, aqueous with cosolvent or surfactant or cyclodextrin, thermodynamic from solid, Acetone/water (4:1), read-out: Solubility at 50 ± 1° C.
  solubility: > 50000 µg/mL
[2]; DCM/MeOH (1:1), 50 °C, organic solvent or mixture, thermodynamic from solid, DCM/MeOH (1:1), read-out: Solubility at 50 ± 1° C.
  solubility: > 50000 µg/mL
[2]; DMF, 50 °C, organic solvent or mixture, thermodynamic from solid, DMF, read-out: Solubility at 50 ± 1° C.
  solubility: > 50000 µg/mL
[2]; DMSO, 50 °C, organic solvent or mixture, thermodynamic from solid, DMSO, read-out: Solubility at 50 ± 1° C.
  solubility: > 50000 µg/mL
[2]; EtOAc, 50 °C, organic solvent or mixture, thermodynamic from solid, EtOAc, read-out: Solubility at 50 ± 1° C.
  solubility: 2710 µg/mL (≈ 6.31 mM)
[2]; EtOH, 50 °C, organic solvent or mixture, thermodynamic from solid, EtOH, read-out: Solubility at 50 ± 1° C.
  solubility: 8560 µg/mL (≈ 19.9 mM)
[2]; IPA, 50 °C, organic solvent or mixture, thermodynamic from solid, IPA, read-out: Solubility at 50 ± 1° C.
  solubility: 2220 µg/mL (≈ 5.17 mM)
[2]; IPAc, 50 °C, organic solvent or mixture, thermodynamic from solid, IPAc, read-out: Solubility at 50 ± 1° C.
  solubility: 980 µg/mL (≈ 2.28 mM)
[2]; MEK, 50 °C, organic solvent or mixture, thermodynamic from solid, MEK, read-out: Solubility at 50 ± 1° C.
  solubility: 3730 µg/mL (≈ 8.69 mM)
[2]; MIBK, 50 °C, organic solvent or mixture, thermodynamic from solid, MIBK, read-out: Solubility at 50 ± 1° C.
  solubility: 2950 µg/mL (≈ 6.87 mM)
[2]; MeCN, 50 °C, organic solvent or mixture, thermodynamic from solid, MeCN, read-out: Solubility at 50 ± 1° C.
  solubility: 11600 µg/mL (≈ 26.9 mM)
[2]; THF, 50 °C, organic solvent or mixture, thermodynamic from solid, THF, read-out: Solubility at 50 ± 1° C.
  solubility: 11300 µg/mL (≈ 26.3 mM)
[2]; THF/water (4:1), 50 °C, organic solvent or mixture, thermodynamic from solid, THF/water (4:1), read-out: Solubility at 50 ± 1° C.
  solubility: > 50000 µg/mL
[2]; acetone, 50 °C, organic solvent or mixture, thermodynamic from solid, Acetone, read-out: Solubility at 50 ± 1° C.
  solubility: 15500 µg/mL (≈ 36.1 mM)
[2]; ethyl formate, 50 °C, organic solvent or mixture, thermodynamic from solid, Ethyl formate, read-out: Solubility at 50 ± 1° C.
  solubility: 6580 µg/mL (≈ 15.3 mM)
[2]; hexane, 50 °C, organic solvent or mixture, thermodynamic from solid, Hexane, read-out: Solubility at 50 ± 1° C.
  solubility: 60 µg/mL (≈ 0.14 mM)
[2]; isobutyl acetate, 50 °C, organic solvent or mixture, thermodynamic from solid, Isobutyl acetate, read-out: Solubility at 50 ± 1° C.
  solubility: 750 µg/mL (≈ 1.75 mM)
[2]; methanol, 50 °C, organic solvent or mixture, thermodynamic from solid, Methanol, read-out: Solubility at 50 ± 1° C.
  solubility: 17900 µg/mL (≈ 41.6 mM)
[2]; n-BuOH, 50 °C, organic solvent or mixture, thermodynamic from solid, n-BuOH, read-out: Solubility at 50 ± 1° C.
  solubility: 6200 µg/mL (≈ 14.4 mM)
[2]; organic solvent or mixture, thermodynamic from solid, at 50° C. in MeCN, 1,4-dioxane, MeOH, 2-methoxyethanol, THF, acetone, n-BuOH, EtOH, ethyl formate, 1-propanol, MEK, acetone water (2:1), acetone water (1:1), MIBK, EtOAc, IPA, and acetone water (1:2), read-out: Solubility (slightly soluble)
  solubility: 1000 to 50000 µg/mL (≈ 2.33 to 116 mM)
[2]; water, 50 °C, water, thermodynamic from solid, Water, read-out: Solubility at 50 ± 1° C.
  solubility: 10 µg/mL (≈ 0.0233 mM)
[3]
  Relative stability of polymorphic forms: most stable polymorphic form

## C=CC(=O)NCc1cc2c(cn1)CN(c1c(F)c(OC)cc(OC)c1F)C(=O)C21CC1 [Form III]
[1]; 1,4-dioxane, 23 °C, organic solvent or mixture, thermodynamic from solid, 1,4-Dioxane, read-out: Solubility at 23 ± 1° C.
  solubility: 3020 µg/mL (≈ 7.03 mM)
[2]; 1,4-dioxane, 50 °C, organic solvent or mixture, thermodynamic from solid, 1,4-Dioxane, read-out: Solubility at 50 ± 1° C.
  solubility: 37800 µg/mL (≈ 88 mM)

## C=CC(=O)NCc1cc2c(cn1)CN(c1c(F)c(OC)cc(OC)c1F)C(=O)C21CC1 [Form II]
[1]; Chloroform, 23 °C, organic solvent or mixture, thermodynamic from solid, Chloroform, read-out: Solubility at 23 ± 1° C.
  solubility: 26700 µg/mL (≈ 62.1 mM)
[2]; Chloroform, 50 °C, organic solvent or mixture, thermodynamic from solid, Chloroform, read-out: Solubility at 50 ± 1° C.
  solubility: > 50000 µg/mL

## C=CC(=O)NCc1cc2c(cn1)CN(c1c(F)c(OC)cc(OC)c1F)C(=O)C21CC1 [Form IV]
[1]; toluene, 23 °C, organic solvent or mixture, thermodynamic from solid, Toluene, read-out: Solubility at 23 ± 1° C.
  solubility: 150 µg/mL (≈ 0.349 mM)
[2]; toluene, 50 °C, organic solvent or mixture, thermodynamic from solid, Toluene, read-out: Solubility at 50 ± 1° C.
  solubility: 170 µg/mL (≈ 0.396 mM)
